The test is described as follows: Cytotoxicity against mouse Neuro2a cells. As to conditions: N2a. The class given is functional, cell-based.

Turning to `CC/C=C/C=C/CC[C@]1(C)C[C@H](O)[C@H](C)CC[C@H]2C[C@@H](O[C@@H]3O[C@@H](C)[C@H](OC)[C@@H](O)[C@H]3OC)C[C@@](O)(CC(=O)O1)O2` [LYNGBOUILLOSIDE], the midpoint of inhibition, the IC50, lay at 17 µM.

These data come from ChEMBL document CHEMBL1150601, “Lyngbouilloside, a novel glycosidic macrolide from the marine cyanobacterium Lyngbya bouillonii” (J Nat Prod, 2002).
